The record followed here is patent publication US9024017B2, “Octahydro-cyclopentapyrrolyl antagonists of CCR2” (Janssen Pharmaceutica NV, priority 2012, dated 2015).

T1 sequence (P41597 whole entry): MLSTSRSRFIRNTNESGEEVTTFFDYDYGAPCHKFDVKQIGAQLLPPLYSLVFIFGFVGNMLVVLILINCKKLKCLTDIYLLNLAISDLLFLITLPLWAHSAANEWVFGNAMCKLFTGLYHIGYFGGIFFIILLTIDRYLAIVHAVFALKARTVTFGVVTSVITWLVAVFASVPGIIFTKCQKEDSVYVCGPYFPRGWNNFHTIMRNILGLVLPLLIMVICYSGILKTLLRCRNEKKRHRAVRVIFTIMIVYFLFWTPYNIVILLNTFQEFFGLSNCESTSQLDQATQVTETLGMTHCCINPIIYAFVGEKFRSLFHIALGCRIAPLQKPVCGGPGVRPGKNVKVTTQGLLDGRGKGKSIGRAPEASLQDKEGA

This assay concerns the target T1, CCR2 (Homo sapiens, UniProt P41597).
T1 construct: host or cells: THP-1 (human monocytic cell line)
Description: MCP-1 Receptor Binding Assay in THP-1 Cells. Particulars: read-out: MCP1B_v3 IC50. As for the experimental part: Compounds of the invention were subjected to various representative biological tests. […] MCP-1 Receptor Binding Assay in THP-1 Cells Human monocytic cell line THP-1 cells were obtained from American Type Culture Collection (Manassas, Va., USA). The THP-1 cells were grown in RPMI-1640 (RPMI: Roswell Park Memorial Institute Medium-cell culture growth media) supplemented with 10% fetal bovine serum in a humidified 5% CO2 atmosphere at 37° C. The cell density was maintained between […].
THP-1 (cells were incubated with 0.5 nM ^125I labeled MCP-1 (Perkin-Elmer Life Sciences, Inc. Boston, Mass.) in the presence of varying concentrations of either unlabeled MCP-1 (R & D Systems, Minneapolis, Minn.) or test compound for 2 hours at 30° C. in a 96 well plate. Cells were then harvested onto a filter plate, dried, and 20 μL of Microscint 20 was added to each well. Plates were counted in a TopCount NXT, Microplate Scintillation & Luminescence Counter (Perkin-Elmer Life Sciences, Inc. Boston, Mass.). Blank values (buffer only) were subtracted from all values and drug treated values were compared to vehicle treated values. 1 μM cold MCP-1 was used for nonspecific binding.
Regarding `COC1COCCC1N[C@@H]1C[C@H]2CN(C(=S)NCc3ccccc3)C[C@@]2(C(=O)N2CCc3ncc(C(F)(F)F)cc3C2)C1` (relative stereo) [Example 26, (3aR,5R,6aR)-N-Benzyl-5-(((3S*,4S*)-3-methoxytetrahydro-2H-pyran-4-yl)amino)-3a-(3-(trifluoromethyl)-5,6,7,8-tetrahydro-1,6-naphthyridine-6-carbonyl)hexahydrocyclopenta-[c]pyrrole-2(1H)-carbothioamide], the IC50 (as a rule, the point on the concentration scale where inhibition reaches its midpoint) turned out to be 200 nM.
The value for `CNC(=S)N1C[C@@H]2C[C@@H](NC3CCOCC3OC)C[C@]2(C(=O)N2CCc3ncc(C(F)(F)F)cc3C2)C1` (relative stereo) [Example 27, (3aR,5R,6aR)-5-(((3S*,4S*)-3-Methoxytetrahydro-2H-pyran-4-yl)amino)-N-methyl-3a-(3-(trifluoromethyl)-5,6,7,8-tetrahydro-1,6-naphthyridine-6-carbonyl)hexahydrocyclopenta[c]pyrrole-2(1H)-carbothioamide] was 30 nM; that for `CNC(=S)N1C[C@@H]2C[C@@H](N(C(=S)NC)C3CCOCC3OC)C[C@]2(C(=O)N2CCc3ncc(C(F)(F)F)cc3C2)C1` (relative stereo) [Example 28, (3aR,5R,6aR)-5-(1-((3S*,4S*)-3-Methoxytetrahydro-2H-pyran-4-yl)-3-methylthioureido)-N-methyl-3a-(3-(trifluoromethyl)-5,6,7,8-tetrahydro-1,6-naphthyridine-6-carbonyl)hexahydrocyclopenta[c]pyrrole-2(1H)-carbothioamide] was 250 nM; that for `COC1COCCC1N[C@@H]1C[C@H]2CN(C(=S)NCC(C)C)C[C@@]2(C(=O)N2CCc3ncc(C(F)(F)F)cc3C2)C1` (relative stereo) [Example 29, (3aR,5R,6aR)-N-Isobutyl-5-(((3S*,4S*)-3-methoxytetrahydro-2H-pyran-4-yl)amino)-3a-(3-(trifluoromethyl)-5,6,7,8-tetrahydro-1,6-naphthyridine-6-carbonyl)hexahydrocyclopenta[c]pyrrole-2(1H)-carbothioamide] was 30 nM.
The value for `COC1COCCC1N(C(=S)NCC(C)C)[C@@H]1C[C@H]2CN(C(=S)NCC(C)C)C[C@@]2(C(=O)N2CCc3ncc(C(F)(F)F)cc3C2)C1` (relative stereo) [Example 30, (3aR,5R,6aR)-N-Isobutyl-5-((3S*,4S*)-3-isobutyl-1-(3-methoxytetrahydro-2H-pyran-4-yl)thioureido)-3a-(3-(trifluoromethyl)-5,6,7,8-tetrahydro-1,6-naphthyridine-6-carbonyl)hexahydrocyclopenta[c]pyrrole-2(1H)-carbothioamide] was 90 nM; that for `COC1COCCC1N[C@@H]1C[C@H]2CN(C(=S)n3ccnc3)C[C@@]2(C(=O)N2CCc3ncc(C(F)(F)F)cc3C2)C1` (relative stereo) [Example 31, ((3aR,5R,6aR)-2-(1H-Imidazole-1-carbonothioyl)-5-(((3S*,4S*)-3-methoxytetrahydro-2H-pyran-4-yl)amino)octahydrocyclopenta[c]pyrrol-3a-yl)(3-(trifluoromethyl)-7,8-dihydro-1,6-naphthyridin-6(5H)-yl)methanone] was 80 nM; that for `COC1COCCC1N[C@@H]1C[C@H]2CN(S(N)(=O)=O)C[C@@]2(C(=O)N2CCc3ncc(C(F)(F)F)cc3C2)C1` (relative stereo) [Example 32, (3aR,5R,6aR)-5-(((3S*,4S*)-3-Methoxytetrahydro-2H-pyran-4-yl)amino)-3a-(3-(trifluoromethyl)-5,6,7,8-tetrahydro-1,6-naphthyridine-6-carbonyl)hexahydrocyclopenta-[c]pyrrole-2(1H)-sulfonamide] was 130 nM.
